The text below walks through data of article PMC5820243, “Two inhibitors of yeast plasma membrane ATPase 1 (ScPma1p): toward the development of novel antifungal therapies” (Journal of Cheminformatics, 2018).

This experiment addresses T1, ScPma1p (yeast plasma membrane ATPase 1) (Saccharomyces cerevisiae, UniProt P05030).
T1 construct: gene PMA1
The experiment can be described thus: cell-free vesicle-based ATP hydrolysis assay (ScPma1p-overexpressing vesicles, phosphate release). The class given is biochemical.

T1 sequence (P05030 whole entry): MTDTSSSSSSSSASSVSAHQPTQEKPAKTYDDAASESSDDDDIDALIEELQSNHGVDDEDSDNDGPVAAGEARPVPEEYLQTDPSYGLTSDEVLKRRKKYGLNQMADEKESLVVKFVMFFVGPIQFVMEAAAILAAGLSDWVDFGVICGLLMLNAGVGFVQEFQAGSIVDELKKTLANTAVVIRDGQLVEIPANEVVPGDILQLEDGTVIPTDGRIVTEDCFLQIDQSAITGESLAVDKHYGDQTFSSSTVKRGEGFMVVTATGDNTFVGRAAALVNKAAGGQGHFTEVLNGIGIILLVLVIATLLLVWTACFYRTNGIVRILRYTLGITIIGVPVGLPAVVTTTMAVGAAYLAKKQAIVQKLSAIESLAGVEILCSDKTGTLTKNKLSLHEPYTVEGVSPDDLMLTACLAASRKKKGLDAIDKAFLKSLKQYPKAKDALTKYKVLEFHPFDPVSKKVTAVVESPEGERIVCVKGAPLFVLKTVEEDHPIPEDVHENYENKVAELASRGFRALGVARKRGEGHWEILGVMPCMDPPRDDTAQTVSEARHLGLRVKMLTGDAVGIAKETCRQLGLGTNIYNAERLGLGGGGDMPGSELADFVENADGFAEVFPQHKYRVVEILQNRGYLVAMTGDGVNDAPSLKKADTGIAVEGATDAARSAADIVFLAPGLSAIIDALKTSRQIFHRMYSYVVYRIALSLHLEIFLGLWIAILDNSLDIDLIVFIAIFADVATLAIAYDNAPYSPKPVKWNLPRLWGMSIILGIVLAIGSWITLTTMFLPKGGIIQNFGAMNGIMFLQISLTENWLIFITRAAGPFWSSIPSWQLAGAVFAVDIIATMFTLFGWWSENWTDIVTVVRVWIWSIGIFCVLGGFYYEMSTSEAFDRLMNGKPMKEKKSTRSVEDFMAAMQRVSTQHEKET

For the compound `Cn1ncc2c(Nc3cccc(Cl)c3)nc(Nc3cccc(Cl)c3)nc21` [NSC11668, 4-N,6-N-bis(3-chlorophenyl)-1-methylpyrazolo[3,4-d]pyrimidine-4,6-diamine], the IC50 (usually the concentration that gives 50% inhibition) worked out at 4.4 µM.
